Measured values published in BigSolDB 2.1.

SMILES: C=C(C)[C@@H]1CC[C@]2(C(=O)O)CC[C@]3(C)[C@H](CC[C@@H]4[C@@]5(C)CCC(=O)C(C)(C)[C@@H]5CC[C@]43C)[C@@H]12
- solubility (mole fraction) (in 2-methoxyethanol, 278.15 K): 0.00863
- solubility (mole fraction) (in 2-methoxyethanol, 283.15 K): 0.00923
- solubility (mole fraction) (in 2-methoxyethanol, 288.15 K): 0.00969
- solubility (mole fraction) (in 2-methoxyethanol, 293.15 K): 0.0103
- solubility (mole fraction) (in 2-methoxyethanol, 298.15 K): 0.0108
- solubility (mole fraction) (in 2-methoxyethanol, 303.15 K): 0.0117
- solubility (mole fraction) (in 2-methoxyethanol, 308.15 K): 0.0127
- solubility (mole fraction) (in 2-methoxyethanol, 313.15 K): 0.0137
- solubility (mole fraction) (in 2-methoxyethanol, 318.15 K): 0.0149
- solubility (mole fraction) (in 2-propoxyethanol, 278.15 K): 0.0239
- solubility (mole fraction) (in 2-propoxyethanol, 283.15 K): 0.0248
- solubility (mole fraction) (in 2-propoxyethanol, 288.15 K): 0.025
- solubility (mole fraction) (in 2-propoxyethanol, 293.15 K): 0.0264
- solubility (mole fraction) (in 2-propoxyethanol, 298.15 K): 0.0274
- solubility (mole fraction) (in 2-propoxyethanol, 303.15 K): 0.0288
- solubility (mole fraction) (in 2-propoxyethanol, 308.15 K): 0.03
- solubility (mole fraction) (in 2-propoxyethanol, 313.15 K): 0.0314
- solubility (mole fraction) (in 2-propoxyethanol, 318.15 K): 0.0331
- solubility (mole fraction) (in ethanol, 278.15 K): 0.00376
- solubility (mole fraction) (in ethanol, 283.15 K): 0.00399
- solubility (mole fraction) (in ethanol, 288.15 K): 0.00454
- solubility (mole fraction) (in ethanol, 293.15 K): 0.00503
- solubility (mole fraction) (in ethanol, 298.15 K): 0.00566
- solubility (mole fraction) (in ethanol, 303.15 K): 0.00617
- solubility (mole fraction) (in ethanol, 308.15 K): 0.00693
- solubility (mole fraction) (in ethanol, 313.15 K): 0.00757
- solubility (mole fraction) (in ethanol, 318.15 K): 0.00848
- solubility (mole fraction) (in isopropanol, 278.15 K): 0.00531
- solubility (mole fraction) (in isopropanol, 283.15 K): 0.00564
- solubility (mole fraction) (in isopropanol, 288.15 K): 0.00651
- solubility (mole fraction) (in isopropanol, 293.15 K): 0.0075
- solubility (mole fraction) (in isopropanol, 298.15 K): 0.00865
- solubility (mole fraction) (in isopropanol, 303.15 K): 0.00968
- solubility (mole fraction) (in isopropanol, 308.15 K): 0.0114
- solubility (mole fraction) (in isopropanol, 313.15 K): 0.0138
- solubility (mole fraction) (in isopropanol, 318.15 K): 0.0158
- solubility (mole fraction) (in methanol, 278.15 K): 0.00129
- solubility (mole fraction) (in methanol, 283.15 K): 0.00136
- solubility (mole fraction) (in methanol, 288.15 K): 0.00146
- solubility (mole fraction) (in methanol, 293.15 K): 0.00157
- solubility (mole fraction) (in methanol, 298.15 K): 0.00171
- solubility (mole fraction) (in methanol, 303.15 K): 0.00192
- solubility (mole fraction) (in methanol, 308.15 K): 0.00211
- solubility (mole fraction) (in methanol, 313.15 K): 0.00234
- solubility (mole fraction) (in methanol, 318.15 K): 0.0027
- solubility (mole fraction) (in n-propanol, 278.15 K): 0.00728
- solubility (mole fraction) (in n-propanol, 283.15 K): 0.00762
- solubility (mole fraction) (in n-propanol, 288.15 K): 0.00827
- solubility (mole fraction) (in n-propanol, 293.15 K): 0.00914
- solubility (mole fraction) (in n-propanol, 298.15 K): 0.0104
- solubility (mole fraction) (in n-propanol, 303.15 K): 0.0116
- solubility (mole fraction) (in n-propanol, 308.15 K): 0.0131
- solubility (mole fraction) (in n-propanol, 313.15 K): 0.0144
- solubility (mole fraction) (in n-propanol, 318.15 K): 0.0163
